These results are taken from publication PMC9596850, “Tonsillar Microbiome‐Derived Lantibiotics Induce Structural Changes of IL‐6 and IL‐21 Receptors and Modulate Host Immunity” (Advanced Science, 2022).

Peptide text beside a SMILES is read from it.

For data set [1], the system named is collagen‐induced arthritis (CIA) model mice. In words: Collagen‐induced arthritis (CIA) mice, prophylactic regimen. Conditions: prophylactic administration in CIA mice. The format is in vivo, DBA/1 mice. As for the experimental part: Male DBA/1 mice (6–8 weeks old) were purchased from Huafukang Co. Ltd. (Beijing, China) and fed under specific pathogen‐free conditions. All experiments were carried out in accordance with guidelines prescribed by the Animal Care and Use Committee of Peking University People's Hospital (2019PHE047). CIA induction was established by following a previously published protocol.^[ [41] ^] Briefly, DBA/1 mice were immunized intradermally at the base of the tail with 200 µg of bovine type II collagen (CII, Chondrex) emulsified in complete Freund's adjuvant (Sigma‐Aldrich, St Louis, MO, USA) in equal volumes. Three weeks later, a booster was delivered using 100 µg CII emulsified in Freund's incomplete adjuvant. Mice were monitored for signs of arthritis after the booster immunization. Clinical score was assessed by using the following system as detailed previously:^[ [41] ^] […]
The paws from each mouse were collected and fixed in 4% paraformaldehyde (PFA) for 48 h, then scanned using a Micro‐CT scanner (Quantum FX, Caliper, USA). […] A microscopic assessment of sagittal sections was performed and histopathological changes were scored based on the following previously reported parameters:^[ [42] ^] […]

The next data set addresses T1, murine IL‐21R (Mus musculus, UniProt Q9JHX3).
T1 construct: Fc region of human IgG1 (C); purchased Sino Biological
Put plainly: SPR binding to immobilized murine IL‐21R. As for the experimental part:
The binding affinities of salivaricins to IL‐6Rα or IL‐21R were assayed using the Biacore 8K instrument (GE Healthcare). Murine IL‐6Rα (20 nM, abcam) or IL‐21R ([…], Sino Biological) were immobilized on a CM5 sensor chip using standard amine‐coupling at 25 °C with PBS‐P running buffer (GE Healthcare), as described previously.^[ [39] ^] […] Regeneration was achieved by extended washing with NaOH (5 mm) after each sample injection. The dissociation constants (KD) of salivaricins were obtained by fitting the data sets to steady‐state affinity model using Biacore 8K Evaluation Software.
For orientation: In SPR one partner is held on a chip, and binding of the other changes the refractive index at the surface.

The mark [2] stands for this setting: Table S4, immobilized mIL-21R, Steady state affinity model.

T1 sequence (Q9JHX3 20-529): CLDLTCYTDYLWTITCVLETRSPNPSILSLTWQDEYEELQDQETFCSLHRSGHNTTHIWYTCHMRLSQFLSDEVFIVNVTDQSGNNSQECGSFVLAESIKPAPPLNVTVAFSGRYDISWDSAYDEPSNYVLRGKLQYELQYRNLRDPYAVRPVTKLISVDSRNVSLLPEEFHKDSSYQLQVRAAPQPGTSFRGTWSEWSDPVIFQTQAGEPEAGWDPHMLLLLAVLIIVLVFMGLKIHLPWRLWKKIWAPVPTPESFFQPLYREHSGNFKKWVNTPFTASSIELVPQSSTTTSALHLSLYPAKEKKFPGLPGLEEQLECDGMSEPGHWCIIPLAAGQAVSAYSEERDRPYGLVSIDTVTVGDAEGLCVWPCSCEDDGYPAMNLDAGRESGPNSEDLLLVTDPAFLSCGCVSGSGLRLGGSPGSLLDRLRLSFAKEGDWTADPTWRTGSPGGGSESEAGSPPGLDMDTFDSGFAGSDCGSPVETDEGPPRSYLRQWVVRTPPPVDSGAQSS

As a reminder, the Kd is the equilibrium constant for the complex coming apart. Read a low Kd as higher affinity. Regarding `CC[C@H](C)[C@H](NC(=O)[C@@H](NC(=O)[C@H](C)NC(=O)[C@H](Cc1ccccc1)NC(=O)[C@H](Cc1c[nH]c2ccccc12)NC(=O)CNC(=O)[C@@H](NC(=O)CNC(=O)[C@H](CCCNC(=N)N)NC(=O)[C@@H](N)CCCCN)[C@@H](C)O)[C@@H](C)O)C(=O)N[C@H](C(=O)N[C@@H](CC(=O)O)C(=O)N[C@@H](CC(=O)O)C(=O)N[C@@H](CS)C(=O)N1CCC[C@H]1C(=O)N[C@@H](CC(N)=O)C(=O)N[C@@H](CO)C(=O)N[C@H](C(=O)N[C@@H](Cc1ccccc1)C(=O)N[C@H](C(=O)N[C@@H](CS)C(=O)N[C@@H](CS)C(=O)O)C(C)C)C(C)C)[C@@H](C)O` [salivaricin A2] (H-KRGTGWFATITDDCPNSVFVCC-OH), in data set [1], the body weight entry is recorded as “without affecting body weight”. Further, the Kd at murine IL‐21R (Figure 5D legend, mutant experiment, analyte 12.5–800 µM, immobilized murine IL‐21R 20 nM) came out at 29.4 µM; at murine IL‐21R (setting [2]), 12.6 µM.

Regarding `CC[C@H](C)[C@H](NC(=O)[C@@H](NC(=O)CNC(=O)CNC(=O)CN)C(C)C)C(=O)N[C@@H](CCC(N)=O)C(=O)N[C@H](C(=O)N[C@H](C(=O)N[C@@H](CO)C(=O)N[C@@H](Cc1c[nH]cn1)C(=O)N[C@@H](CCC(=O)O)C(=O)N[C@@H](CS)C(=O)N[C@@H](CCCNC(=N)N)C(=O)N[C@@H](CCSC)C(=O)N[C@@H](CC(N)=O)C(=O)N[C@@H](CO)C(=O)N[C@@H](Cc1c[nH]c2ccccc12)C(=O)N[C@@H](CCC(N)=O)C(=O)N[C@@H](Cc1ccccc1)C(=O)N[C@@H](CC(C)C)C(=O)N[C@@H](Cc1ccccc1)C(=O)N[C@H](C(=O)N[C@@H](CS)C(=O)N[C@@H](CS)C(=O)N[C@@H](CO)C(=O)O)[C@@H](C)O)[C@@H](C)CC)[C@@H](C)O` [salivaricin B] (H-GGGVIQTISHECRMNSWQFLFTCCS-OH), in data set [1], the body weight result was “without affecting body weight”. For the same compound, the Kd at murine IL‐21R (Figure S8D, salivaricin B mutant experiment, analyte 12.5-800, immobilized murine IL-21R 20 nM) came to 12.6 µM; on murine IL‐21R (setting [2]), 10.1 µM.
